Results: PubChem BioAssay (NCI)
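Cells were grown in 96-well plates and exposed to each compound for 48 hours at five concentrations; endpoints were interpolated linearly between bracketing concentrations, or set to the highest concentration if not reached. Abbreviation: GI50, concentration required for 50% inhibition of growth. Definition used: TGI = concentration required for complete inhibition of growth.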

What was measured:
Experiment in all cases: NCI anticancer screen, dose series, 48 h
CCRF-CEM leukemia = test system: CCRF-CEM leukemia
EKVX NSCLC = test system: EKVX NSCLC
K-562 leukemia = test system: K-562 leukemia
MALME-3M melanoma = test system: MALME-3M melanoma
MDA-MB-231 breast = test system: MDA-MB-231 breast
NCI/ADR-RES ovarian = test system: NCI/ADR-RES ovarian
PC-3 prostate = test system: PC-3 prostate
RPMI-8226 leukemia = test system: RPMI-8226 leukemia
SNB-75 CNS = test system: SNB-75 CNS
T-47D breast = test system: T-47D breast

| SMILES | GI50 (CCRF-CEM leukemia) [µM] | TGI (CCRF-CEM leukemia) [µM] | GI50 (EKVX NSCLC) [µM] | TGI (EKVX NSCLC) [µM] | GI50 (K-562 leukemia) [µM] | TGI (K-562 leukemia) [µM] | GI50 (MALME-3M melanoma) [µM] | TGI (MALME-3M melanoma) [µM] | GI50 (MDA-MB-231 breast) [µM] | TGI (MDA-MB-231 breast) [µM] | GI50 (NCI/ADR-RES ovarian) [µM] | TGI (NCI/ADR-RES ovarian) [µM] | GI50 (PC-3 prostate) [µM] | TGI (PC-3 prostate) [µM] | GI50 (RPMI-8226 leukemia) [µM] | TGI (RPMI-8226 leukemia) [µM] | GI50 (SNB-75 CNS) [µM] | TGI (SNB-75 CNS) [µM] | GI50 (T-47D breast) [µM] | TGI (T-47D breast) [µM] |
| --- | --- | --- | --- | --- | --- | --- | --- | --- | --- | --- | --- | --- | --- | --- | --- | --- | --- | --- | --- | --- |
| O=C(Nc1ccc(Oc2ccc(F)cc2)cc1)[C@@H]1C[C@@H](Cc2ccc(F)cc2)CN1C(=O)Cn1ccnn1 | 5.24 | > 100 | 7.79 | 40.4 | 5.61 | > 65 | 9.49 | 26.1 | 8.91 | 26.6 | 12.1 | 52.5 | 4.42 | > 37.8 | 3.74 | 26.4 | 4.03 | 31.8 | 4.32 | 36.5 |
| Oc1ccc(Br)cc1C=Nc1cccc(C(F)(F)F)c1 |  | 28.5 |  | > 100 |  | > 100 |  | 75.5 |  | > 100 |  | > 100 |  | 33.3 |  | > 100 |  | > 100 |  | > 100 |
| CCOC(=O)[C@@H](C)C[C@H](Cc1ccccc1)NC(=O)c1csc([C@@H](C[C@H](C(C)C)N(C)C(=O)[C@@H](NC(=O)[C@H]2CCCCN2C)C(C)(C)CC)OC(C)=O)n1 | 0.00246 | > 8.65 | 0.00232 | > 16.7 | < 0.00167 | > 16.7 | < 0.00167 | 3.68 | 0.00283 | 1.18 | 0.00891 |  | < 0.00167 | > 16.7 | < 0.00167 | 4.18 | < 0.00167 | 13.9 | < 0.00167 | > 16.7 |
| O=C(CS(=O)(=O)c1nc2ccccc2nc1-c1ccccc1)Nc1ccc(F)cc1 | 3.15 | 18.8 | > 100 | > 100 | 3.83 | 16.6 | 80.7 | > 100 | 34.7 | > 100 | 33.7 | > 100 | 26 | > 100 | 29.1 | > 100 | > 100 | > 100 | 56.6 | > 100 |
| COc1cccc2c1-c1nc(N)c3c(OC)cccc3c1C2=O |  | > 100 |  | > 100 |  | > 100 |  | > 100 |  | > 100 |  | > 100 |  | > 100 |  | > 100 |  | 46.4 |  | > 100 |
| C=C1C(=O)O[C@H]2[C@H]1CC/C(COC(=O)c1cc(OC)c(OC)c(OC)c1)=C\CC[C@@]1(C)O[C@@H]21 | 0.293 | 2.28 | 1.78 | 4.5 | 0.388 | 11.5 | 1.77 | 3.77 | 1.54 | 4.16 | 2.87 | 13.8 | 1.8 | 4.49 | 0.422 | 2.34 | 7.92 | 21.6 | 0.931 | 3.54 |
| NS(=O)(=O)c1ccc(Nc2cc(-c3ccc(O)c(F)c3)[nH]n2)cc1 | 13.5 | > 25 | > 25 | > 25 | > 25 | > 25 | > 23.2 | > 25 | > 25 | > 25 | > 25 | > 25 | > 25 | > 25 | > 25 | > 25 | > 25 | > 25 | > 16.6 | > 25 |
